Test results from patent US20250154198A1, “PEPTIDE INHIBITORS OF INTERLEUKIN-23 RECEPTOR” (Zealand Pharma A/S, priority 2021, published 2025).
Read-outs that look alike come from different tables or passages of the source. *1 amine or outer side, *2 acyl side, *3 side chain or, on linkers, in order; H or OH if unused. Where a SMILES comes first, the peptide text is derived from it. Bridges are numbered along the chain shown (N, C = ends). [ ]: non-standard residue; d: D form. Trp(1-Me) = Cn1cc(C[C@H](N)C(=O)O)c2ccccc21; 2Nal = N[C@@H](Cc1ccc2ccccc2c1)C(=O)O; AEF = NCCOc1ccc(C[C@H](N)C(=O)O)cc1; αMeR = C[C@](N)(CCCNC(=N)N)C(=O)O; αMeL = CC(C)C[C@](C)(N)C(=O)O; CH2COCH2 = O=C(C[*:1])C[*:2]; 3Amb = NCc1cccc(C(=O)O)c1

Columns and labels:
[1] = Peptide stability in simulated gastric fluid (SGF); type: in vitro ADME; conditions: pig, Table 3-3, porcine pepsin, pH 1.2, 37° C., 10 μM; for remaining at 1 h, 10 μM: read-out: SGF (% remaining 1 h); for remaining at 4 h, 10 μM: read-out: SGF (% remaining 4 h)
Procedure: Determination of Peptide Stability in Simulated Gastric Fluid (SGF) and Simulated Intestinal Fluid (SIF)
SGF was prepared by dissolving sodium chloride (0.2 g) in 50 mL of water. A volume of 0.7 mL of 10 M HCl was added to adjust the pH of the solution to 1.2 and the volume made up to 100 mL with water. […] SIF was prepared by dissolving monobasic potassium phosphate (0.68 g) in 50 mL of water and adjusting the pH to 6.8 with 1 M NaOH. The volume was subsequently made up to 100 mL with water. 200 mg porcine pancreatin (P1625, Sigma Aldrich) was gently dissolved into 20 mL preheated (37° C.) solution (10 g/L) immediately prior to the incubation.
The incubation was performed at 37° C. with gentle shaking. […] After the last timepoint, the sampling plate was mixed for 10 min on a shaking table and centrifuged 10 min at 2200 g. 70 μL resulting supernatant was diluted with 150 μL water, mixed and centrifugated before analysis by liquid chromatography high resolution mass spectrometry. […] Percent remaining at each timepoint was calculated relative to timepoint zero based on absolute peak areas.

[2] = Peptide stability in simulated intestinal fluid (SIF); type: in vitro ADME; conditions: pig, Table 3-2, porcine pancreatin, pH 6.8, 37° C., 10 μM; for remaining at 1 h, 10 μM: read-out: SIF (% remaining 1 h); for remaining at 4 h, 10 μM: read-out: SIF (% remaining 4 h)
Method in brief: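 Peptides incubated at 37°C with gentle shaking in SGF (NaCl, HCl, pH 1.2) or SIF (phosphate pH 6.8 with 10 g/L porcine pancreatin). Samples analysed by LC-HRMS; percent remaining at each timepoint calculated from absolute peak areas relative to time zero.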

[3] = target: T1, human IL-23R (Homo sapiens, UniProt Q5VWK5); assay: Binding assay (NanoBRET displacement of fluorophore-labelled reference compound) for estimating binding affinity to human IL-23R; conditions: for IL-23R inhibitory activity (in words): with reference to Ki and IC50 data of the Examples
T1 construct: UniProtKB—Q5VWK5, amino acids 22-629; secretion signal of the plasmid (Promega N1371); expressed in transfected cells
T1 sequence (Q5VWK5 22-629): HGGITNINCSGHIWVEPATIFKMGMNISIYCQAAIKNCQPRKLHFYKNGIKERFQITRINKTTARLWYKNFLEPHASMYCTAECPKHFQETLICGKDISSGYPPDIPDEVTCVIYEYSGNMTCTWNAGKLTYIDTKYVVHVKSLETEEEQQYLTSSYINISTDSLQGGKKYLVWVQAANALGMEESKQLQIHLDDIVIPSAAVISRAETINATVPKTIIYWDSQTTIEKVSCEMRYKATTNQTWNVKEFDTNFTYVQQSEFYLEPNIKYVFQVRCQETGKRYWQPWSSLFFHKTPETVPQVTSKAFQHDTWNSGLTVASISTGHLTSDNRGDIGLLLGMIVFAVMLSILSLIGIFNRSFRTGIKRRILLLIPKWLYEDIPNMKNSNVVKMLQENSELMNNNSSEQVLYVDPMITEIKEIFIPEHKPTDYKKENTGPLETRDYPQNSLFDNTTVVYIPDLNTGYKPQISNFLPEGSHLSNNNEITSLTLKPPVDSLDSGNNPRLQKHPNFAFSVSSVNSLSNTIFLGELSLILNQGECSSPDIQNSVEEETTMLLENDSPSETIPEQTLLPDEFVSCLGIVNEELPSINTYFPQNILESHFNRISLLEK

[4] = target: IL-23 mediated phospho-STAT3 formation in DB cells (Homo sapiens, UniProt Q5VWK5); assay: Functional inhibition of IL-23 mediated STAT3 signalling (phospho-STAT3 Tyr705 MSD) in DB cells; type: cell-based
Method in brief: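 DB cells preincubated 15 min with compound at 37° C, then stimulated 90 min with hIL-23 at EC80. Lysate phospho-STAT3 measured by MSD, normalized to IL-23-alone and buffer wells; IC50 and maximal % inhibition from 4PL fit.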

[5] = simulated gastric fluid (SGF) with porcine pepsin
[6] = simulated intestinal fluid (SIF) with porcine pancreatin
[7] = Table 3-1, read-out: Ki hIL-23R
[8] = Table 3-1, DB cells, read-out: IC50 (pSTAT3)

remaining at 1 h, 10 μM [1, 5] [%]	remaining at 4 h, 10 μM [1, 5] [%]	remaining at 1 h, 10 μM [2, 6] [%]	remaining at 4 h, 10 μM [2, 6] [%]	Ki [3, 7] [µM]	IC50 [4, 8] [µM]	Compound	also measured
0	0	0	0	–	–	CC(=O)N[C@H]1CCCCNC(=O)CC[C@@H](C(=O)N[C@@H](CCCNC(=N)N)C(N)=O)NC(=O)[C@H](CC(C)C)NC(=O)[C@H](Cc2ccc3ccccc3c2)NC(=O)[C@H](Cc2c[nH]c3ccccc23)NC(=O)[C@@H]2CSCC(=O)CSC[C@H](NC(=O)[C@H](CO)NC1=O)C(=O)N[C@@H](Cc1cn(C)c3ccccc13)C(=O)N[C@@H](CCC(N)=O)C(=O)N2 [Compound 27, [Ac]-K(1c)SC(2a)[1-Me-Trp]QC(2a)W[2-Nal]LE(1c)R-[NH2]] (Ac-KSC[Trp(1-Me)]QCW[2Nal]LER-NH2; lactam 1-10; linker 3-6 via CH2COCH2)	–
21	1	7	0	–	–	CC(=O)N[C@@H](CC(=O)O)C(=O)N[C@H]1CCC(=O)NCCCC[C@@H](C(=O)N[C@@H](CCCNC(=N)N)C(N)=O)NC(=O)[C@](C)(CC(C)C)NC(=O)[C@H](Cc2ccc3ccccc3c2)NC(=O)[C@H](Cc2c[nH]c3ccccc23)NC(=O)[C@@H]2CSCC(=O)CSC[C@H](NC(=O)[C@H]([C@@H](C)O)NC1=O)C(=O)N[C@@H](Cc1c[nH]c3ccccc13)C(=O)N[C@@H](CCC(N)=O)C(=O)N2 [Compound 57, [Ac]-DE(1c)TC(2a)WQC(2a)W[2-Nal][2-Me-Leu]K(1c)R-[NH2]] (Ac-DETCWQCW[2Nal][αMeL]KR-NH2; lactam 2-11; linker 4-7 via CH2COCH2)	–
61	8	80	45	–	–	CC(=O)N[C@@H](CC(=O)O)C(=O)N[C@H]1CCC(=O)NCCCC[C@@H](C(=O)N[C@@H](CCC(=O)O)C(=O)N[C@@H](CC(N)=O)C(=O)NCC(N)=O)NC(=O)[C@](C)(CC(C)C)NC(=O)[C@H](Cc2ccc3ccccc3c2)NC(=O)[C@H](Cc2c[nH]c3ccccc23)NC(=O)[C@@H]2CSCC(=O)CSC[C@H](NC(=O)[C@H](CO)NC1=O)C(=O)N[C@@H](Cc1c[nH]c3ccccc13)C(=O)N[C@@H](CCC(N)=O)C(=O)N2 [Compound 58, [Ac]-DE(1c)SC(2a)WQC(2a)W[2-Nal][2-Me-Leu]K(1c)ENG-[NH2]] (Ac-DESCWQCW[2Nal][αMeL]KENG-NH2; lactam 2-11; linker 4-7 via CH2COCH2)	–
–	–	–	–	> 1	> 1	CC(C)C[C@@H]1NC(=O)[C@H](Cc2c[nH]c3ccccc23)NC(=O)[C@H](Cc2c[nH]c3ccccc23)NC(=O)[C@H](Cc2ccc(O)cc2)NC(=O)[C@H](CCC(N)=O)NC(=O)[C@H](Cc2c[nH]c3ccccc23)NC(=O)[C@H]([C@@H](C)O)NC(=O)[C@H](CO)NC(=O)[C@@H](NC(=O)[C@@H](N)CC(=O)O)CCC(=O)NCCCC[C@@H](C(=O)N[C@@H](CCCNC(=N)N)C(N)=O)NC1=O [Ref 3, reference compound] (HELM PEPTIDE1{D.E.S.T.W.Q.Y.W.W.L.K.R.[am]}$PEPTIDE1,PEPTIDE1,2:R3-11:R3$$$V2.0)	–
–	–	–	–	> 1	> 1	CSCC[C@@H]1NC(=O)[C@H](CO)NC(=O)[C@@H](NC(=O)[C@H](CC(=O)O)NC(C)=O)CCC(=O)NCCCC[C@@H](C(=O)N[C@@H](CCCNC(=N)N)C(N)=O)NC(=O)[C@H](CC(C)C)NC(=O)[C@H](Cc2c[nH]c3ccccc23)NC(=O)[C@H](Cc2c[nH]c3ccccc23)NC(=O)[C@H](CCSC)NC(=O)[C@H](CCC(N)=O)NC(=O)[C@H](Cc2c[nH]c3ccccc23)NC1=O [Ref 4, reference compound] (HELM PEPTIDE1{[ac].D.E.S.M.W.Q.M.W.W.L.K.R.[am]}$PEPTIDE1,PEPTIDE1,3:R3-12:R3$$$V2.0)	–
–	–	–	–	> 1	> 1	CC(=O)N[C@@H](CC(=O)O)C(=O)N[C@H]1CCC(=O)NCCCC[C@@H](C(=O)N[C@@H](CCCNC(=N)N)C(N)=O)NC(=O)[C@H](Cc2c[nH]c3ccccc23)NC(=O)[C@H](Cc2c[nH]c3ccccc23)NC(=O)[C@@H]2CSCC(=O)CSC[C@H](NC(=O)[C@H](CO)NC1=O)C(=O)N[C@@H](Cc1c[nH]c3ccccc13)C(=O)N[C@@H](CCC(N)=O)C(=O)N2 [Ref 7, [Ac]-DE(1c)SC(2a)WQC(2a)WWK(1c)R-[NH2], reference compound] (HELM PEPTIDE1{[ac].D.E.S.C.W.Q.C.W.W.K.R.[am]}|CHEM1{[O=C(C[*:1])C[*:2]]}$PEPTIDE1,PEPTIDE1,3:R3-11:R3|PEPTIDE1,CHEM1,5:R3-1:R1|PEPTIDE1,CHEM1,8:R3-1:R2$$$V2.0)	IL-23R inhibitory activity (in words) [3]: inactive

The next lines start with the compound.

Compound	remaining at 1 h, 10 μM [1, 5] [%]	remaining at 4 h, 10 μM [1, 5] [%]	remaining at 1 h, 10 μM [2, 6] [%]	remaining at 4 h, 10 μM [2, 6] [%]	Ki [3, 7] [µM]	IC50 [4, 8] [µM]	also measured
CC(C)C[C@]1(C)NC(=O)[C@H](Cc2c[nH]c3ccccc23)NC(=O)[C@H](Cc2c[nH]c3ccccc23)NC(=O)[C@@H]2CSCC(=O)CSC[C@H](NC(=O)[C@H](CO)NC(=O)[C@@H](NC(=O)[C@@H](N)CC(=O)O)CSCC(=O)CSC[C@@H](C(=O)N[C@@H](CCCNC(=N)N)C(N)=O)NC1=O)C(=O)N[C@@H](Cc1c[nH]c3ccccc13)C(=O)N[C@@H](CCC(N)=O)C(=O)N2 [Compound 1, H-DC(1a)SC(2a)WQC(2a)WW[2-Me-Leu]C(1a)R-[NH2]]	–	–	–	–	–	–	remaining at 1 h, 10 μM [1]: 86%; remaining at 4 h, 10 μM [1]: 68%; remaining at 1 h, 10 μM [2]: 0%; remaining at 4 h, 10 μM [2]: 0%
CC(C)C[C@]1(C)NC(=O)[C@H](Cc2ccc3ccccc3c2)NC(=O)[C@H](Cc2ccc(OCCN)cc2)NC(=O)[C@@H]2CSCC(=O)CSC[C@H](NC(=O)[C@H](CO)NC(=O)c3cccc(c3)CNC(=O)CC[C@@H](C(=O)N[C@@](C)(CCCNC(=N)N)C(N)=O)NC1=O)C(=O)N[C@@H](Cc1c[nH]c3ccccc13)C(=O)N[C@@H](CCC(N)=O)C(=O)N2 [Compound 42, [(3-Aminomethyl)benzoyl](1c)*SC(2a)WQC(2a)[Y(2-aminoethoxy)][2-Nal][2-Me-Leu]E(1c)[2-Me-Arg]-[NH2]] ([3Amb]SCWQC[AEF][2Nal][αMeL]E[αMeR]-NH2; linker 3-6 via CH2COCH2; lactam N-10)	90	–	–	–	0.00276	–	–
CC(C)C[C@@H]1NC(=O)[C@H](Cc2c[nH]c3ccccc23)NC(=O)[C@H](Cc2c[nH]c3ccccc23)NC(=O)[C@@H]2CSSC[C@H](NC(=O)[C@H](CO)NC(=O)[C@@H](NC(=O)[C@@H](N)CC(=O)O)CSSC[C@@H](C(=O)N[C@@H](CCCNC(=N)N)C(N)=O)NC1=O)C(=O)N[C@@H](Cc1c[nH]c3ccccc13)C(=O)N[C@@H](CCC(N)=O)C(=O)N2 [Ref 1, H-DC(1b)SC(2b)WQC(2b)WWLC(1b)R-[NH2], reference compound]	–	–	–	–	–	–	Ki [3]: > 1 µM; IL-23R inhibitory activity (in words) [3]: inactive; IC50 [4]: > 1 µM; IC50 ([4]; read-out: IC50 (pSTAT3), Table 3-1, DB cells): > 1 µM
CC(C)C[C@@H]1NC(=O)[C@H](Cc2c[nH]c3ccccc23)NC(=O)[C@H](Cc2c[nH]c3ccccc23)NC(=O)[C@H](CO)NC(=O)[C@H](CCC(N)=O)NC(=O)[C@H](Cc2c[nH]c3ccccc23)NC(=O)[C@H](CO)NC(=O)[C@H](CO)NC(=O)[C@@H](NC(=O)[C@@H](N)CC(=O)O)CCC(=O)NCCCC[C@@H](C(=O)N[C@@H](CCCNC(=N)N)C(N)=O)NC1=O [Ref 2, reference compound] (HELM PEPTIDE1{D.E.S.S.W.Q.S.W.W.L.K.R.[am]}$PEPTIDE1,PEPTIDE1,2:R3-11:R3$$$V2.0)	–	–	–	–	> 1	> 1	–
